What was measured:
Rattus norvegicus [1] = experiment: Analgesic activity in Sprague-Dawley rat brewer's yeast treated foot assessed as response threshold at 32 mg/kg, po; format: functional
Rattus norvegicus [2] = experiment: Analgesic activity in Sprague-Dawley rat normal foot assessed as response threshold at 32 mg/kg, po; format: functional

Compound | Activity (Rattus norvegicus [1]) [mm] | Activity (Rattus norvegicus [2]) [mm]
COC(=O)c1cnc2c(c1)[nH]c(=O)n2-c1ccccc1F | <25 | <40
C=CCn1c(=O)n(-c2ccccc2F)c2ncccc21 | 25 | <40
S=c1[nH]c2cccnc2n1-c1ccc2c(c1)OCO2 | <25 | <40
COc1cc(-n2nnc3cccnc32)cc(OC)c1OC | <25 | <40
COc1ccc(-n2c(=O)[nH]c3cccnc32)cc1OC | <25 | <40
O=c1[nH]c2cccnc2n1-c1ccc2c(c1)OC1(CCCCC1)O2 | <25 | <40
CC(C)c1ccccc1-n1nnc2cccnc21 | 25 | <40
Fc1ccc(-n2nnc3cccnc32)cc1 | <25 | <40
C=CCn1c(=O)n(-c2ccc3c(c2)OCO3)c2ccccc21 | <25 | <40
c1cnc2c(c1)nnn2-c1ccc2c(c1)COC2 | <25 | <40
O=c1[nH]c2cccnc2n1-c1cc2c(cc1[N+](=O)[O-])OCO2 | <25 | <40
C=CCn1c(=O)n(-c2ccccc2F)c2ncncc21 | <25 | <40
Fc1cccc(F)c1-n1nnc2cccnc21 | 25 | <40
c1cnc2c(c1)nnn2-c1ccc2c(c1)COCO2 | <25 | <40
O=c1[nH]c2cccnc2n1-c1cccc(F)c1 | <25 | <40
O=C(O)Cn1c(=O)n(-c2ccc3c(c2)OCO3)c2ncccc21 | <25 | <40
COC(=O)c1cnc2c(c1)nnn2-c1ccc2c(c1)OCO2 | <25 | <40
CCCCNC(=O)n1c(=O)n(-c2ccc3c(c2)OCO3)c2ncccc21 | <25 | <40

Compound | Activity (Rattus norvegicus [1]) [mm] | Activity (Rattus norvegicus [2]) [mm]
COc1cccc(-n2c(=O)[nH]c3cccnc32)c1 | <25 | <40
Cc1cccc(-n2nnc3cccnc32)n1 | <25 | <40
Cc1cccc(C)c1-n1c(=O)[nH]c2cccnc21 | 25 | <40
C=CCSc1nc2cccnc2n1-c1ccc2c(c1)OCO2 | <25 | <40
Cc1ccc(-n2nnc3cccnc32)cc1 | <25 | <40
Fc1ccccc1-n1nnc2cc(Cl)cnc21 | 25 | <40
CN(C)c1ccc(-n2nnc3cccnc32)cc1 | <25 | <40
CN(C)CCCn1c(=O)n(-c2ccc3c(c2)OCO3)c2ncccc21 | <25 | <40
Cc1ccc(-n2nnc3cccnc32)c(C)c1 | <25 | <40
O=C(O)c1ccc(-n2c(=O)[nH]c3cccnc32)cc1 | <25 | <40
CC(=O)Oc1ccccc1C(=O)O [ASPIRIN] | 25 | <40
Cc1cccc(-n2c(=O)[nH]c3cccnc32)n1 | <25 | <40
O=c1[nH]c2cccnc2n1-c1cccc(Oc2ccccc2)c1 | <25 | <40
COc1ccc(-n2nnc3cccnc32)cc1OC | <25 | <40
O=c1n(CC2CO2)c2cccnc2n1-c1ccc2c(c1)OCO2 (configuration not stated) | <25 | <40
O=c1[nH]c2cccnc2n1-c1ccc2c(c1)COC2 | <25 | <40
C=C(C)Cn1c(=O)n(-c2ccc3c(c2)OCO3)c2ncccc21 | <25 | <40
O=c1[nH]c2cccnc2n1-c1c(F)cccc1F | <25 | <40

— ChEMBL document CHEMBL3244164, “Synthesis and analgesic activity of 1,3-dihydro-3-(substituted phenyl)imidazo[4,5-b]pyridin-2-ones and 3-(substituted phenyl)-1,2,3-triazolo[4,5-b]pyridines” (J Med Chem, 1978)
